The results in this text go back to paper PMC7782499, “Progerinin, an optimized progerin-lamin A binding inhibitor, ameliorates premature senescence phenotypes of Hutchinson-Gilford progeria syndrome” (Communications Biology, 2021).

Data set [1] is described as follows: Pharmacokinetic analysis of SLC-D011 dissolved in monoolein-based solution, oral. Format: in vivo. Also noted: unit not given here. As to the method: Fig. S9. In vitro ADME results of SLC-D011 via oral administration. A. Formulation for complete dissolution. Due to its extremely hydrophobic property, SLC-D011 was not dissolved in water solution (left). To overcome this problem, several edible solutions were tested and monoolein- based solution was selected as a dissolving solution (right). B. SLC-D011 was very stable in solution. For complete dissolution, heating at 80℃ and sonication step were required. However, SLC -D011 was not broken despite of heating […]
and sonication. […] C and D.
Pharmacokinetic analysis of SLC -D011dissolved in monoolein- based solution.

The nature of the next data set: Plasma stability, rat. Format: in vitro ADME. As to the method: For PK analysis, 5 mg/kg of JH4 in 10% DMSO, 5% […] solution were intravenously injected and 10 mg/kg of JH4 in 10% NMP and 90% PEG400 solution were orally delivered. At pre-set time-points, blood concentration of JH4 was determined by LC-MS/MS analysis[22],[23]. Other chemicals were also tested using similar protocol. In vitro ADME studies (plasma protein binding, CYP inhibition, microsomal stability, plasma stability, and hERG inhibition) were performed by New Drug Development Center (Daegu, Korea) using standard protocols[24],[25].

In a further data set the target is CYP2D6 (Homo sapiens, UniProt P10635). Put plainly: CYP inhibition, CYP2D6. Format: in vitro ADME. As for the experimental part:
At pre-set time-points, blood concentration of JH4 was determined by LC-MS/MS analysis[22],[23]. Other chemicals were also tested using similar protocol. In vitro ADME studies (plasma protein binding, CYP inhibition, microsomal stability, plasma stability, and hERG inhibition) were performed by New Drug Development Center (Daegu, Korea) using standard protocols[24],[25].

A further data set relates to HGPS cells. Put plainly: RT-PCR of progerin/prelamin A, CENP-A, IL-6, IL-8, BRCA1 transcripts. Format: cell-based, human. As for the experimental part: For RT-PCR, total cellular RNA was extracted using RNA extraction kit (Qiagen). Gene expression studies were performed using cDNA synthesized from total RNA with MMLV RT (Invitrogen, Carlsbad, USA) and random hexamers. PCR from genomic DNA was perform using DiaStar Taq DNA polymerase (SolGent, Daejeon, Korea) and 50 ng of cDNA. Wild-type prelamin A cDNA was synthesized by PCR amplification using a forward primer, 5′-[…]-3′ and a reverse primer, 5′-[…]-3′. The thermal cycling conditions were as follows: 94°C for 3 min (activation), 94°C for 1 min (denaturation), 61°C for 1 min (annealing) and 72°C for 42 sec (extension) up to 35 cycles. The PCR products were analyzed through 2% agarose electrophoresis and DNA was visualized by ethidium bromide staining and UV photography. Levels of other transcripts were also performed with the following oligonucleotide primers: CENP-A, 5′-[…]-3′ and 5′-[…]-3′; BRCA1, 5′-[…]-3′ and 5′-[…]-3′; IL-6, 5′-[…]-3′ and 5′-[…]-3′; IL-8, 5′-[…]-3′ and 5′-[…]-3′ and GAPDH 5′-[…]-3′ and 5′-[…]-3′.
Fig. S3. Chemical screening with JH4 derivatives (a total of 53 chemicals except JH010 and SLC -D011 were used). A. Summarized tables for effects of JH4 derivatives. ‘+’ means s t re ngt h of binding affinity or expression level after treatment of chemicals. […]

Chain of CYP2D6 (P10635 whole entry): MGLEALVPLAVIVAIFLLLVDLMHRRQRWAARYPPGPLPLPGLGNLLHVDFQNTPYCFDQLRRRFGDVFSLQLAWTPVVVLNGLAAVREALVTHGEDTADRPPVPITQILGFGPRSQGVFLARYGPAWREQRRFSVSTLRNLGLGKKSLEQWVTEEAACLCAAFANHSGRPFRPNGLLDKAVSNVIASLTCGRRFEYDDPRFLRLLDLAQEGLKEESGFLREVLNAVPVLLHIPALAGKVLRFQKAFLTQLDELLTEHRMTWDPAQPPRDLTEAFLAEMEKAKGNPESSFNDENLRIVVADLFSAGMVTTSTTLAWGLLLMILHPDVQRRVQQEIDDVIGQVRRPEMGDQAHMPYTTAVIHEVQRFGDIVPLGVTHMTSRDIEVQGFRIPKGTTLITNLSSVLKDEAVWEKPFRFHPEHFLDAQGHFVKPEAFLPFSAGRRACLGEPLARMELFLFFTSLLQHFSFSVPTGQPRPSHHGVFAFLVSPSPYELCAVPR

On to `CC1(C)Oc2cc3oc(=O)ccc3cc2C[C@@H]1OC/C=C/c1ccccc1` [SLC-D011], for which the “Plasma concentration, Mean” value in data set [1] (oral 10mg/kg (n=3), 0.25 hr) was 41; in data set [1] (oral 10mg/kg (n=3), 0.5 hr), 71; in data set [1] (oral 10mg/kg (n=3), 1 hr), 124.8; in data set [1] (oral 10mg/kg (n=3), 2 hr), 441.9; in data set [1] (oral 10mg/kg (n=3), 4 hr), 318.8; in data set [1] (oral 10mg/kg (n=3), 8 hr) it was 160.1. Also, the “Plasma concentration, Mean” value in data set [1] (oral 10mg/kg (n=3), 24 hr) was 7.7; in data set [1] (oral 20mg/kg (n=3), 0.25 hr), 67.3; in data set [1] (oral 20mg/kg (n=3), 0.5 hr), 93.1; in data set [1] (oral 20mg/kg (n=3), 1 hr) it was 537.5; in data set [1] (oral 20mg/kg (n=3), 2 hr) it was 581.7; in data set [1] (oral 20mg/kg (n=3), 4 hr), 899.9. Further, the “Plasma concentration, Mean” value in data set [1] (oral 20mg/kg (n=3), 8 hr) is reported as 574; in data set [1] (oral 20mg/kg (n=3), 24 hr), 9.7. The molecule further returned a fraction remaining at 0.5 h in the data set “Plasma stability, rat” (30min) of 83.6%. In the data set “Plasma stability, rat” (120min), this molecule returned a share remaining at 2 h of 75.1%. Moreover, at CYP2D6, the CYP inhibition was 91.7. In the data set on HGPS cells, the “mRNA expression of progerin” value is “without alteration of mRNA expression of progerin”.
